Experimental data reported in patent US20050250821A1, “Quaternary ammonium compounds in the treatment of water and as antimicrobial wash” (priority 2004, published 2005).
In brackets after ≈: the same amount, converted by molar mass.

How the values were obtained:
[1] = tested on: Salmonella Enteritidis (ATCC 13076); assay: Microtiter plate assay, CPC and acetic acid (Experiment 4); assay type: cell-based; details: S. Enteritidis, acetic acid treatment alone
Procedure: Test inocula were prepared to achieve a 10^6 cfu/ml suspension of bacterial cells. A Petroff Hausser counting chamber was used to determine the level of inoculum.
(§1) An Optimax microtiter plate reader (Molecular Devices, Sunnyvale, Calif.) at 405 nm wavelength was used to measure the optical density of the suspension in each well. Plates were read kinetically over 24 h. The temperature was maintained at 35° C. All results reflect the average optical density measurements of four microtiter wells. Treatments were prepared in sterile RO at the inclusion levels noted in Table 1. A 100 μl aliquot of test organism and a 100 μl aliquot of experimental treatment were dispensed into individual microtiter plate wells. […] Positive controls consisting of 100 μl of test organism in NB and 100 μl of sterile water and a negative control consisting of 100 μl of NB (no organisms) and 100 μl of sterile water were also used.

[2] = tested on: Salmonella Enteritidis (ATCC 13076); assay: Microtiter plate assay, CPC and propionic acid, 3×3 matrix (Experiment 2); assay type: cell-based; details: propionic acid alone, previous experimentation
Procedure: (§2) The 4×4 matrix was either used in its entirety or in an abbreviated format as deemed appropriate by previous research conducted with similar organisms using a mixed organic acid blend.
Eight formulations were prepared using the incomplete 3×3 matrix design in Table 2. […] Positive and negative controls were included as described in Experiment 1.
Propionic acid was obtained from Kemin Americas, Inc (Des Moines, Iowa). S. Enteriditis, S. aureus and E. coli were grown aerobically in either Tryptic Soy Broth (TSB) or Nutrient Broth (NB) for 24 h at 37° C. L. monocytogenes was grown aerobically in Brain Heart Infusion Broth (BHI) for 24 h at 37° C.
Plates were read kinetically over 24 h. The temperature was maintained at 35° C. […] Treatments were prepared in sterile RO at the inclusion levels noted in Tables 1-2.

[3] = tested on: E. coli O157:H7 (ATCC 35150); assay: Microtiter plate assay, CPC and propionic acid, abbreviated 4×4 matrix (Experiment 2); assay type: cell-based
Procedure: as §2
(§3) Fifteen formulations were prepared using the incomplete 4×4 matrix design in Table 3.
(§4) Four test organisms—Salmonella Enteritidis (ATCC 13076), Staphylococcus aureus (ATCC 25923) E. coli O157:H7 (ATCC 35150) and Listeria monocytogenes (ATCC 15313)—were selected for use in these screening assays. […] Propionic acid was obtained from Kemin Americas, Inc (Des Moines, Iowa). S. Enteriditis, S. aureus and E. coli were grown aerobically in either Tryptic Soy Broth (TSB) or Nutrient Broth (NB) for 24 h at 37° C. L. monocytogenes was grown aerobically in Brain Heart Infusion Broth (BHI) for 24 h at 37° C. Test inocula were prepared to achieve a 10^6 cfu/ml suspension of bacterial cells. A Petroff Hausser counting chamber was used to determine the level of inoculum.
as §1, with “noted in Tables 1-2. A 100” for “noted in Table 1. A 100”, “in NB or BHI and 100” for “in NB and 100”

[4] = tested on: Staphylococcus aureus (ATCC 25923); assay: Microtiter plate assay, CPC and propionic acid, 4×4 matrix (Experiment 2); assay type: cell-based; details: S. aureus
Procedure: as §2, §3, §4
An Optimax microtiter plate reader (Molecular Devices, Sunnyvale, Calif.) at 405 nm wavelength was used to measure the optical density of the suspension in each well. Plates were read kinetically over 24 h. The temperature was maintained at 35° C. All results reflect the average optical density measurements of four microtiter wells. Treatments were prepared in sterile RO at the inclusion levels noted in Tables 1-2. […]

[5] = tested on: Listeria monocytogenes (ATCC 15313); assay: Microtiter plate assay, CPC and propionic acid, abbreviated 4×4 matrix (Experiment 2); assay type: cell-based; details: L. monocytogenes
Procedure: as §2, §3, §4
as §1, with “noted in Tables 1-2. A 100” for “noted in Table 1. A 100”, “in NB or BHI and 100” for “in NB and 100”

[6] = tested on: E. coli O157:H7 (ATCC 35150); assay: Microtiter plate assay, CPC and mixed organic acids (Experiment 3); assay type: cell-based
Procedure: (§5) Fifteen formulations were prepared using the incomplete 4×4 matrix design in Table 8.
(§6) Two test organisms—Salmonella Enteritidis (ATCC 13076) and E. coli O157:H7 (ATCC 35150)—were screened. Salmonella Enteritidis was grown aerobically in Nutrient Broth (NB) for 24 h at 37° C. E. coli was grown in NB for 6 h at 37° C. Test inocula were prepared to achieve a 10^6 cfu/ml suspension of bacterial cells. A Petroff Hausser counting chamber was used to determine the level of inoculum.
(§7) An Optimax microtiter plate reader (Molecular Devices, Sunnyvale, Calif.) at 405 nm wavelength was used to measure the optical density of the suspension in each well. Plates were read kinetically over 24 h. The temperature was maintained at 35° C. All results reflect the average optical density measurements of four microtiter wells. Treatments were prepared in sterile RO at the inclusion levels noted in Table 1. A 100 μl aliquot of test organism and a 100 μl aliquot of experimental treatment were dispensed into individual microtiter plate wells. Bacteria cultures were diluted in Nutrient Broth (NB) prior to inoculation into the wells. Positive controls consisting of 100 μl of test organism in NB and 100 μl of sterile water and a negative control consisting of 100 μl of NB (no organisms) and 100 μl of sterile water were also used.

[7] = tested on: Salmonella Enteritidis (ATCC 13076); assay: as above; assay type: cell-based
Procedure: as §5, §6, §7

[8] = tested on: Salmonella Enteritidis (ATCC 13076); assay: microbe, parasite or virus in culture; details: Salmonella enterica, ATCC13076|ENTERITIDIS, 24 h, read-out: Minimum Inhibitory Concentration (MIC)
Procedure: A Petroff Hausser counting chamber was used to determine the level of inoculum.
An Optimax microtiter plate reader (Molecular Devices, Sunnyvale, Calif.) at 405 nm wavelength was used to measure the optical density of the suspension in each well. Plates were read kinetically over 24 h. The temperature was maintained at 35° C. All results reflect the average optical density measurements of four microtiter wells. […] A 100 μl aliquot of test organism and a 100 μl aliquot of experimental treatment were dispensed into individual microtiter plate wells.

CC(=O)O [acetic acid]
concentration that completely inhibited growth [1]: 250 ppm

CCC(=O)O [propionic acid]
concentration sufficient to inhibit growth [2]: 250 ppm | concentration that completely inhibited growth ([3]; E. coli, propionic acid treatment alone): 250 ppm | concentration shown to inhibit growth ([4]; propionic acid alone, previous experimentation): 250 ppm

CCCCCCCCCCCCCCCC[n+]1ccccc1 [CPC, Cetylpyridinium chloride]
propionic acid substituted by 1 ppm CPC ([3]; E. coli O157:H7): 50 ppm | propionic acid substituted by 1 ppm CPC [5]: > 200 ppm | propionic acid substituted by 1 ppm CPC [4]: approximately 200 ppm | mixed organic acids substituted by 1 ppm CPC [6]: 50 ppm | mixed acids substituted by 1 ppm CPC [7]: 50 ppm

C=O [37% formaldehyde, formaldehyde]
MIC [8]: ~50 µg/mL (≈ 1670 µM)
